# According to US10538567B2, “Compounds as peptidic trigonal GLP1/glucagon/GIP receptor agonists” (priority 2016, dated 2020):
# Numbered stars: 1 amine (or outer) side, 2 acyl side, 3 side chain; on linkers, the order of the positions; unused ones are H or OH. Square brackets hold non-standard residues; d marks the D form. Side chains are listed from the residue outwards. Peptide text beside a SMILES is read from it. * marks the point of attachment. γGlu = O=C(O)[C@H](CCC(=O)[*:2])N[*:1]; Palmitoyl = CCCCCCCCCCCCCCCC(=O)*; AEEA = NCCOCCOCC(=O)O; Aib = CC(C)(N)C(=O)O
# Tests used:
# Type in all cases: physicochemical
# [1] = Thioflavin T (ThT) assay for physical stability (fibrillation); conditions: 3 mg/ml, 100 mM acetate pH 4.5 with m-cresol, 37° C. shaking
# Text: Low physical stability of a peptide solution may lead to amyloid fibril formation, which is observed as well-ordered, thread-like macromolecular structures in the sample, which eventually may lead to gel formation. Thioflavin T (ThT) is widely used to visualize and quantify the presence of misfolded protein aggregates. [Biancalana et al. (2010) Biochimica et Biophysica Acta. 1804 (7): 1405-1412]. […] Enzymol. 309, 274-284]. The time course for fibril formation often follows the characteristic shape of a sigmoidal curve and can be separated into three regions: a lag phase, a fast growth phase, and a plateau phase.
# The typical fibril formation process starts with the lag phase in which the amount of partially folded peptide turned into fibrils is not significant enough to be detected. The lag-time corresponds to the time the critical mass of the nucleus is built. Afterwards, a drastic elongation phase follows and fibril concentration increases rapidly.
# Investigations were carried out to determine fibrillation tendencies under stress conditions by shaking at 37° C. within Fluoroskan Ascent FL.
# For the tests in Fluoroskan Ascent FL, 200 μL sample were placed into a 96 well mictrotiter plate PS, flat bottom, Greiner Fluotrac No. 655076. Plates were sealed with Scotch Tape (Quiagen). Samples were stressed by continuous cycles of 10 s shaking at 960 rpm and 50 s rest period at 37° C. The kinetic was monitored by measuring fluorescence intensity every 20 minutes.
# Peptides were diluted in a buffer system to a final concentration of 3 mg/ml. 20 μL of a 10.1 mM ThT solution in H2O were added to 2 mL of peptide solution to receive a final concentration of 100 μM ThT. For each sample eight replicates were tested.
# Tht buffer system A) 100 mM Acetate pH 4.5 including m-cresol (100 mM Natriumacetat trihydrat, pH adjustment using 2N CH3COOH, 2.7 mg/mL m-cresol) Tht buffer system B) 100 mM citrate buffer pH 6.0
# Lag time in hours in Thioflavin T (ThT) assay of peptide samples was determined in ThT buffer system A as described in Methods.
# [2] = Chemical stability assessment, UPLC-UV purity loss in buffer system A; conditions: 1 mg/ml, 25 mM acetate buffer pH 4.5 with m-cresol
# Method: Prior to the chemical stability measurement of a peptide batch, its purity was determined through UPLC/MS. For stability testing the target concentration was 1 mg pure compound/ml. Therefore solutions from solid samples were prepared in a buffer system with a concentration of 1 mg/mL compound based on the previously determined % purity:
# Chemical stability buffer system A) 25 mM acetate buffer pH 4.5, 3 mg/mL L-Methionine, 2.7 mg/mL m-cresol, 18 mg/mL Glycerol 85% Chemical stability buffer system B) 25 mM phosphate buffer pH 6.0, 3 mg/mL L-Methionine, 2.7 mg/mL m-cresol, 18 mg/mL Glycerol 85%
# Peptide solutions were filtered through […] pore size and filled into aliquots under aseptic conditions. At starting point, UPLC-UV was performed by injection of 2 μl of the undiluted sample.
# For chemical stability testing, aliquots were stored for 28 days at 5 and 40° C. After this time course the samples were centrifuged for 15 min at 2500 RCF. Then 2 μl of the undiluted supernatant were analysed with UPLC-UV.
# The chemical stability was rated through the relative loss of purity calculated by the equation: [(purity at starting point)−(purity after 28 days at X° C.)]/(purity at starting point)]*100%
# The purity is calculated as
# [(peak area peptide)/(total peak area)]*100%
# Peptide samples were prepared in Chemical stability buffer system A and the stability was assessed as described in Methods.
# [3] = Dynamic light scattering, hydrodynamic radius as surrogate for DLS interaction parameter kD; conditions: for Delta Rh [nm] = Rh5 − Rh1: DLS buffer system A pH 4.5; for Rh1 [nm] c = 1 mg/ml / Rh5 [nm] c = 5 mg/ml: hydrodynamic radius, DLS buffer system A pH 4.5, method C, 25° C.
# Text: A monochromatic and coherent light beam (laser) is used to illuminate the liquid sample. Dynamic Light Scattering (DLS) measures light scattered from particles (1 nm≤radius≤1 μm) that undergo Brownian motion. This motion is induced by collisions between the particles and solvent molecules that themselves are moving due to their thermal energy. The diffusional motion of the particles results in temporal fluctuations of the scattered light [Pecora, R. Dynamic Light Scattering: Applications of Photon Correlation Spectroscopy, Plenum Press, 1985].
# The scattered light intensity fluctuations are recorded and transformed into an autocorrelation function. By fitting the autocorrelation curve to an exponential function, the diffusion coefficient D of the particles in solution can be derived. The diffusion coefficient is then used to calculate the hydrodynamic radius Rh (or apparent Stokes radius) through the Stokes-Einstein equation assuming spherical particles. This calculation is defined in ISO 13321 and ISO 22412 [International Standard ISO13321 Methods for Determination of Particle Size Distribution Part 8: Photon Correlation Spectroscopy, International Organisation for Standardisation (ISO) 1996; International Standard ISO22412 Particle Size Analysis—Dynamic Light Scattering, International Organisation for Standardisation (ISO) 2008].
# For every peptide solution, the hydrodynamic radius Rh and the diffusion constant D (related via the Stokes-Einstein equation) were determined as an average over triplicates. Both parameters were determined at different peptide concentrations (e.g., Rh1 and D1: 1 mg/ml and Rh5 and D5: 5 mg/ml) in the same buffer system. The difference of these parameters between low and high peptide concentration is a surrogate for the DLS interaction parameter kD. Rh5<Rh1 or D5>D1 correspond to kD>0 and therefore to repulsive inter-particle interactions that result in improved physical (or colloidal) stability.
# DLS buffer system A) 25 mM acetate buffer pH 4.5, 3 mg/mL L-Methionine, 2.7 mg/mL m-cresol, 18 mg/mL Glycerol 85%
# DLS Method C: DLS measurements were performed on a DynaPro Plate Reader II (Wyatt Technology, Santa Barbara, Calif., US) and using one of the following black, low volume, and non-treated plates: polystyrene 384 assay plate with clear bottom (Corning, N.Y., US), polystyrene 96 assay plate with clear bottom (Corning, N.Y., US), cyclo olefin polymer (COP) 384 assay plate with clear bottom (Aurora, Mont., US), or polystyrene 384 assay plate with clear bottom (Greiner Bio-One, Germany). The data were processed with the Dynamics software provided by Wyatt Technology. Parameters of the particle size distribution were determined with non-negatively constrained least squares (NNLS) methods using DynaLS algorithms. Measurements were taken at 25° C. with an 830 nm laser light source at an angle of 158°.
# The hydrodynamic radius Rh of peptide samples was determined at different peptide concentrations (1 mg/ml and 5 mg/ml) in DLS buffer system A using DLS method C as described in Methods as surrogate for the DLS interaction parameter kD.
SMILES,Lag time before increase [1] [h],Chemical stability [relative purity loss 28 days 40° C.] (%) at pH 4.5 [2] [%],Delta Rh [nm] = Rh5 − Rh1 [3] [nm],Rh1 [nm] c = 1 mg/ml [3] [nm],Rh5 [nm] c = 5 mg/ml [3] [nm]
"CCCCCCCCCCCCCCCC(=O)NCCOCCOCC(=O)N[C@@H](CCC(=O)N[C@@H](CCC(=O)NCCCC[C@H](NC(=O)[C@H](CC(C)C)NC(=O)[C@H](CCCCN)NC(=O)[C@H](CO)NC(=O)[C@H](CC(C)C)NC(=O)[C@H](CC(=O)O)NC(=O)[C@H](CO)NC(=O)[C@@H](NC(=O)[C@H](Cc1ccccc1)NC(=O)[C@@H](NC(=O)CNC(=O)[C@H](Cc1c[nH]cn1)NC(=O)C(C)(C)NC(=O)[C@@H](N)Cc1c[nH]cn1)[C@@H](C)O)[C@@H](C)O)C(=O)N[C@@H](CCC(=O)O)C(=O)N[C@@H](CCC(=O)O)C(=O)N[C@@H](CCC(N)=O)C(=O)N[C@@H](CCCNC(=N)N)C(=O)N[C@@H](CCC(N)=O)C(=O)N[C@@H](CCCCN)C(=O)N[C@@H](CCC(=O)O)C(=O)N[C@@H](Cc1ccccc1)C(=O)N[C@H](C(=O)N[C@@H](CCC(=O)O)C(=O)N[C@@H](Cc1c[nH]c2ccccc12)C(=O)N[C@@H](CC(C)C)C(=O)N[C@@H](CCCCN)C(=O)N[C@@H](C)C(=O)N[C@H](C)C(=O)NCC(=O)N[C@@H](Cc1c[nH]cn1)C(=O)N1CCC[C@H]1C(=O)N[C@@H](CO)C(=O)NC(C)(C)C(=O)N[C@@H](CCCCN)C(=O)N1CCC[C@H]1C(=O)N1CCC[C@H]1C(=O)N1CCC[C@H]1C(=O)N[C@@H](CCCCN)C(N)=O)[C@@H](C)CC)C(=O)O)C(=O)O [SEQ ID NO: 15, H-Aib-H-G-T-F-T-S-D-L-S-K-L-K[gGlu-gGlu-AEEA-Palm]-E-E-Q-R-Q-K-E-F-1-E-W-L-K-A-dAla-G-H-P-S-Aib-K-P-P-P-K-NH2] (H-H[Aib]HGTFTSDLSKLK([γGlu-γGlu-AEEA-Palmitoyl])EEQRQKEFIEWLKA[dA]GHPS[Aib]KPPPK-NH2)",>45,7.2,−0.4,3.0,2.6
"CCCCCCCCCCCCCCCC(=O)NCCOCCOCC(=O)N[C@@H](CCC(=O)N[C@@H](CCC(=O)NCCCC[C@H](NC(=O)[C@H](CC(C)C)NC(=O)[C@H](CCCCN)NC(=O)[C@H](CO)NC(=O)[C@H](CC(C)C)NC(=O)[C@H](CC(=O)O)NC(=O)[C@H](CO)NC(=O)[C@@H](NC(=O)[C@H](Cc1ccccc1)NC(=O)[C@@H](NC(=O)CNC(=O)[C@H](Cc1c[nH]cn1)NC(=O)C(C)(C)NC(=O)[C@@H](N)Cc1c[nH]cn1)[C@@H](C)O)[C@@H](C)O)C(=O)N[C@@H](CCC(=O)O)C(=O)N[C@@H](CCC(=O)O)C(=O)N[C@@H](CCC(N)=O)C(=O)N[C@@H](CCCNC(=N)N)C(=O)N[C@@H](CCC(N)=O)C(=O)N[C@@H](CCCCN)C(=O)N[C@@H](CCC(=O)O)C(=O)N[C@@H](Cc1ccccc1)C(=O)N[C@H](C(=O)N[C@@H](CCC(=O)O)C(=O)N[C@@H](Cc1c[nH]c2ccccc12)C(=O)N[C@@H](CC(C)C)C(=O)N[C@@H](CCCCN)C(=O)N[C@@H](C)C(=O)NCC(=O)NCC(=O)N[C@@H](Cc1c[nH]cn1)C(=O)N1CCC[C@H]1C(=O)N[C@@H](CO)C(=O)NC(C)(C)C(=O)N[C@@H](CCCCN)C(=O)N1CCC[C@H]1C(=O)N1CCC[C@H]1C(=O)N1CCC[C@H]1C(=O)N[C@@H](CCCCN)C(N)=O)[C@@H](C)CC)C(=O)O)C(=O)O [SEQ ID NO: 14, H-Aib-H-G-T-F-T-S-D-L-S-K-L-K[gGlu-gGlu-AEEA-Palm]-E-E-Q-R-Q-K-E-F-I-E-W-L-K-A-G-G-H-P-S-Aib-K-P-P-P-K-NH2] (H-H[Aib]HGTFTSDLSKLK([γGlu-γGlu-AEEA-Palmitoyl])EEQRQKEFIEWLKAGGHPS[Aib]KPPPK-NH2)",>45,8.1,−0.1,3.0,2.9
